The source of these data is ChEMBL document CHEMBL1132670, “Combinatorial search of substituted beta-cyclodextrins for phosphatase-like activity” (Bioorg Med Chem Lett, 1999).

This series can be described thus: Pseudo-first-order rate constant was determined by hydrolysis p-NPP in the presence of Zn 2+ at 37 C. Type of series: ADME.

On to `OC[C@H]1O[C@@H]2O[C@H]3[C@H](O)[C@@H](O)[C@@H](O[C@H]4[C@H](O)[C@@H](O)[C@@H](O[C@H]5[C@H](O)[C@@H](O)[C@@H](O[C@H]6[C@H](O)[C@@H](O)[C@@H](O[C@H]7[C@H](O)[C@@H](O)[C@@H](O[C@H]8[C@H](O)[C@@H](O)[C@@H](O[C@H]1[C@H](O)[C@H]2O)O[C@@H]8CO)O[C@@H]7CO)O[C@@H]6CO)O[C@@H]5CO)O[C@@H]4CO)O[C@@H]3CO` [BETADEX], for which the K obs turned out to be 4.16e-07 s⁻¹.
